Biological target: β2AR (Homo sapiens, UniProt P07550)
Test: BRET analysis of β-arrestin2 binding to the β2AR in HEK 293 cells
Assay type: cell-based
Procedure: Schematic of screening methodologies for cAMP production and β-arrestin binding. Cells were treated with the unbiased beta-agonist isoproterenol (ISO)±test compounds. The primary high throughput screen utilized a luciferase-based cAMP biosensor, GLOSENSORTM (Promega), and an enzyme complementation-based assay, […]® (DiscoveRx). Independent secondary screening utilized a cAMP ELISA and BRET for β-arrestin recruitment. […] Secondary screen for cAMP production by ELISA. […] Cells were lysed and cAMP production was measured. […] Dose response curve for DFPQ as measured by BRET. […] Data for dose response curve was taken 12 min post ISO addition. n=3. […] Cells were lysed and cAMP production was measured by ELISA. […] Cells were read every 2 min post agonist addition. […] Cells were read every three minutes for 18 minutes on a PolarStar Optima plate reader (BMG) to establish peak signal. […] Luminescence was determined at room temperature (23-25° C.) on a PolarStar Optima plate reader (BMG). […] Relative assay bias was calculated from the ratio of normalized cAMP and arrestin recruitment responses. […] BRET was measured using a Tecan Infinite F500 microplate reader. […] Bound [35 S]GTPγS was collected by rapid filtration on GF/B filters, washed 4 times with 4 ml of cold GTPγS wash buffer and analyzed by liquid scintillation counting. […] Band intensity was measured by densitometry using ImageJ. […]

Sequence of β2AR (P07550 whole entry): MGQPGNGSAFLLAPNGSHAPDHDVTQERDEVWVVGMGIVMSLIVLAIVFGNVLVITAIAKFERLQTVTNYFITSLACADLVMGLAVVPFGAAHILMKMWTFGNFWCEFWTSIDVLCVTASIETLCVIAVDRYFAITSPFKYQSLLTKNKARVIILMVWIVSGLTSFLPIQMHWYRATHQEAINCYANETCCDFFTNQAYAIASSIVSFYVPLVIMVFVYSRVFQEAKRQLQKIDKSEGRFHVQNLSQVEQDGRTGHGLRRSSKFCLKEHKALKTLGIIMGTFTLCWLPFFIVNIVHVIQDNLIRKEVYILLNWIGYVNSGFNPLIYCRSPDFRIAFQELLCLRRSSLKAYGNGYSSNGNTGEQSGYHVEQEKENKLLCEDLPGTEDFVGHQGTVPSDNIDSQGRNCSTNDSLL

## Fc1ccc(Nc2nc(NC3CCCCC3)c3ccccc3n2)cc1F [DFPQ, N^4-cyclohexyl-N^2-(3,4-difluorophenyl)quinazoline-2,4-diamine]
10 μM DFPQ, over the measured time course, FIG. 2A
  β-arrestin2 recruitment to the β2AR: fully inhibited
β-arrestin recruitment readout, FIG. 1D
  mode of inhibition, global curve fitting and Schild analysis of ISO dose response curves: non-competitive inhibition
